Experimental data reported in ChEMBL document CHEMBL2439962, “Fighting Obesity and Metabolic Disorders with MGAT-2 Inhibitors” (ACS Med Chem Lett, 2013).

Tests used:
[1] = biological target: T1, 2-acylglycerol O-acyltransferase 2 (Homo sapiens, UniProt Q3SYC2); assay: Inhibition of human MGAT2 by LC/MS assay
[2] = biological target: T1, 2-acylglycerol O-acyltransferase 2; assay: Inhibition of human MGAT2 by SPA assay

T1 sequence (Q3SYC2 whole entry): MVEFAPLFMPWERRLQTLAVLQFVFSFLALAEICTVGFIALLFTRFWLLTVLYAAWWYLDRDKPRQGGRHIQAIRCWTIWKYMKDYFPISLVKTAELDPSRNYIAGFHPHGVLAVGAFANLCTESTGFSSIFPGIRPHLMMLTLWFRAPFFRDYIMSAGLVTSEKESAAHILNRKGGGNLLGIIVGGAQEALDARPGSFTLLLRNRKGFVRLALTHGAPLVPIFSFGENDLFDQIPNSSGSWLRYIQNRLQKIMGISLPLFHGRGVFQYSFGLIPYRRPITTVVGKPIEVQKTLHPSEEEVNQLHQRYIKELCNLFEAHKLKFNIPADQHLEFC

Row | IC50 [1] | IC50 [2] | SMILES
1 | 2 nM | 8 nM | Cc1ccc(C2=C(C(=O)Nc3ccno3)C(=O)N[C@@](c3ccc(OCCCC(F)(F)F)cc3)(C(F)(F)F)C2)cc1
2 | 7 nM | 9 nM | Cc1ccc(C2=C(C(=O)Nc3ccc(-c4nnn[nH]4)cc3)C(=O)N[C@@](c3ccc(OCCCC(F)(F)F)cc3)(C(F)(F)F)C2)cc1
